Values after ≈ are worked out from the molar mass of the structure shown.
Legend:
[1] = in water at 25° C.; cited from earlier work
[2] = Glibenclamide particle size distribution; format: physicochemical; details: glibenclamide batch
Experimental: In-vivo bioavailability tests were performed with tablets prepared as disclosed in example 2, using two batches of glibenclamide. The two batches have the following 10 to 90% particle size range:
The distribution of the particle size of batches A and B are illustrated in FIG. 1.
Data from the studies with metformin hydrochloride/glibenclamide tablets formulated with glibenclamide of different particle size characteristics allowed the development of a correlation between drug particle size and the in vivo performance.

| 10 to 90% particle size range [2] | Compound | solubility [1] [µg/mL] |
| --- | --- | --- |
| – | COc1ccc(Cl)cc1C(=O)NCCc1ccc(S(=O)(=O)NC(=O)NC2CCCCC2)cc1 [glibenclamide] | 100 (≈ 202 µM) |
| 3.47-38.08 μm | COc1ccc(Cl)cc1C(=O)NCCc1ccc(S(=O)(=O)NC(=O)NC2CCCCC2)cc1 [batch A, glibenclamide] | – |
| 15.63-91.6 μm | COc1ccc(Cl)cc1C(=O)NCCc1ccc(S(=O)(=O)NC(=O)NC2CCCCC2)cc1 [batch B, glibenclamide] | – |

From patent USRE38629E1, “Solid oral dosage form comprising a combination of metformin and glibenclamide” (Merck Sante, priority 1998, dated 2004)
